# According to ChEMBL document CHEMBL2086274, “Synthesis, biological evaluation, and molecular docking of N-{3-[3-(9-methyl-9H-carbazol-3-yl)-acryloyl]-phenyl}-benzamide/amide derivatives as xanthine oxidase and tyrosinase inhibitors” (Bioorg Med Chem, 2012):
# pIC50, pKi: −log10 of the molar value.
# Key:
# [1] = target: T1, Tyrosinase (Mus musculus) (UniProt P11344); assay: Inhibition of tyrosinase in mouse B16F10 cells assessed as reduction of melanin production at 20 ug/ml after 72 hrs; type: cell-based; conditions: B16-F10
# T1 sequence (whole entry): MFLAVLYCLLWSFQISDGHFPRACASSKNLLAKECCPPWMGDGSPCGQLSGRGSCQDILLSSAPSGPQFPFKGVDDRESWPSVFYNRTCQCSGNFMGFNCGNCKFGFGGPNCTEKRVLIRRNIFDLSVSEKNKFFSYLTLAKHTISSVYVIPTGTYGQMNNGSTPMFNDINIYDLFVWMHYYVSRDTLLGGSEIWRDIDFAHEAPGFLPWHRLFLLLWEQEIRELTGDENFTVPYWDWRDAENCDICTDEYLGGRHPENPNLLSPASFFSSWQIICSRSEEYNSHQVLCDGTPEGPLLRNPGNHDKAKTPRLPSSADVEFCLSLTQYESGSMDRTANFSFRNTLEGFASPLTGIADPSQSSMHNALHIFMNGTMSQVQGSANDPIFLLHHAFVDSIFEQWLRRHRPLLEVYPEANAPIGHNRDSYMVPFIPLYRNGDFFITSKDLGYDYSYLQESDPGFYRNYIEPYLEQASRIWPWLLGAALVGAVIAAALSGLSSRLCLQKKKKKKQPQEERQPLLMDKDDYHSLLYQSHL
# [2] = Cytotoxicity against mouse B16F10 cells assessed as cell viability at 20 ug/ml after 76 hrs by MTT assay; type: cell-based, B16-F10; conditions: read-out: Activity
# Tyrosinase [3] = target: T2, Tyrosinase (Agaricus bisporus, UniProt O42713)
# T2 sequence (O42713 whole entry): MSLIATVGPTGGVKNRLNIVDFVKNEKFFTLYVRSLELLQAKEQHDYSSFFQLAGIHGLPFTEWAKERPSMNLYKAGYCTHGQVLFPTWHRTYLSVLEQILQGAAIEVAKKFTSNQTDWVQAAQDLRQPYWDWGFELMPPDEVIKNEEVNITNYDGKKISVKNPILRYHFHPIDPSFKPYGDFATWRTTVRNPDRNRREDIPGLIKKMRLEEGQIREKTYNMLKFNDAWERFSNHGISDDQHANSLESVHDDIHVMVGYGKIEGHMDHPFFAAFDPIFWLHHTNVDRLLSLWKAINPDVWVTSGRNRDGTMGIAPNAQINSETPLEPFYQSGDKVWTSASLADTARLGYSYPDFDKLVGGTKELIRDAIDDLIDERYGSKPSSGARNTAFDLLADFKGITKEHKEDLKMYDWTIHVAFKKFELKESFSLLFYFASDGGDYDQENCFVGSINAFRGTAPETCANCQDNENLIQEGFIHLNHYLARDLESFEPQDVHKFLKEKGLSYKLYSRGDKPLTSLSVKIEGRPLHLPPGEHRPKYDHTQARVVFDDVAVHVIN
# Description: Inhibition of mushroom tyrosinase using L-DOPA as substrate after 5 mins by UV-spectrophotometric analysis
# [4] = target: Xanthine dehydrogenase/oxidase (Bos taurus, UniProt P80457)
# Sequence of Xanthine dehydrogenase/oxidase (P80457 whole entry): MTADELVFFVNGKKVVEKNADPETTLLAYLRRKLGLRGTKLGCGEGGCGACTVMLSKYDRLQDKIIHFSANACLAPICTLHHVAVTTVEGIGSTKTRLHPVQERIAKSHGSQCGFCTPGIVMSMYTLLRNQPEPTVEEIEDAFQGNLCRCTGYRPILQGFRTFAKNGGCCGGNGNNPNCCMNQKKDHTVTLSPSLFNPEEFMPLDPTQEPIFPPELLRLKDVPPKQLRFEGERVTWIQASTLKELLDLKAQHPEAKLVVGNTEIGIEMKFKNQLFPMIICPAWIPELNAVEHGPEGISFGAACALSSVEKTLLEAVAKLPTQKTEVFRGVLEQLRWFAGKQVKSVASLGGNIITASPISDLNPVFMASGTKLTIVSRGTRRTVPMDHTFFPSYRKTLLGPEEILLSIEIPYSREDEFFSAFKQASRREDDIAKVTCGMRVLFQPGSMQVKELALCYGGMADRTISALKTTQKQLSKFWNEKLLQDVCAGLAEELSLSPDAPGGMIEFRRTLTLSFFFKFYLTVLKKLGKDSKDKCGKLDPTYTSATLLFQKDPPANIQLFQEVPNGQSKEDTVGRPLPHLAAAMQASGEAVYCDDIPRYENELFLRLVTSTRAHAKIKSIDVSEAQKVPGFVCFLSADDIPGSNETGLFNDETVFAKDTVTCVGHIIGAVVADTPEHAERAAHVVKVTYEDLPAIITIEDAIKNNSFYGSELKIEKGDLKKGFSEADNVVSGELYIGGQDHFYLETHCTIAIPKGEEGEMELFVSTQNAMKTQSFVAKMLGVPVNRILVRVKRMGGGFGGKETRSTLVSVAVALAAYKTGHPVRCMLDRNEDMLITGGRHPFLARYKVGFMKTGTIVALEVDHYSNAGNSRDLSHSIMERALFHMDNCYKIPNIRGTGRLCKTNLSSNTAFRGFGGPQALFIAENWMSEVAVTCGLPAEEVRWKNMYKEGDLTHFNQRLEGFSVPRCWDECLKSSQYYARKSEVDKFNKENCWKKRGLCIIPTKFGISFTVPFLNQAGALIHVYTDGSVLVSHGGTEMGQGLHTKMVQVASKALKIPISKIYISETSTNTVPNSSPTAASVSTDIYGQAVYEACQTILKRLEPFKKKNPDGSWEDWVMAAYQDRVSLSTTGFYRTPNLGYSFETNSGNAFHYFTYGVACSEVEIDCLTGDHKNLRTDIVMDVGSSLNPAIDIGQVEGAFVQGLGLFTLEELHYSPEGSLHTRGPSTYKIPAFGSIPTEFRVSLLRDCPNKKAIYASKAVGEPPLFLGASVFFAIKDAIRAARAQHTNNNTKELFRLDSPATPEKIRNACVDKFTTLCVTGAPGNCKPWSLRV
# Description: Inhibition of bovine milk XO assessed as decrease in uric acid formation after 5 mins by UV-spectrophotometric analysis
# Tyrosinase [5] = target: T2, Tyrosinase; remark: listed apart in the source
# Description: Inhibition of mushroom tyrosinase using L-tyrosine as substrate after 5 mins by UV-spectrophotometric analysis
# Tyrosinase [6] = target: T2, Tyrosinase; assay: Competitive inhibition of mushroom tyrosinase using L-DOPA as substrate after 5 mins by Lineweaver-Burk plot analysis
inhibition [1],pIC50 (Tyrosinase [3]),pIC50 [4],pIC50 (Tyrosinase [5]),pKi (Tyrosinase [6]),SMILES,"viability at 76 h, 20 ug/ml [2]"
15.9%,4.11,5.29,4.07,,Cn1c2ccccc2c2cc(/C=C/C(=O)c3cccc(NC(=O)/C=C/c4ccccc4)c3)ccc21,81%
29.4%,4.25,5.36,4.32,,Cn1c2ccccc2c2cc(/C=C/C(=O)c3cccc(NC(=O)c4cccc(Cl)c4)c3)ccc21,80.5%
30.1%,4.12,5.29,4.19,,Cn1c2ccccc2c2cc(/C=C/C(=O)c3cccc(NC(=O)c4cccc(C(F)(F)F)c4)c3)ccc21,80.1%
8.1%,< 4.00,< 4.00,< 4.00,,Cc1ccccc1C(=O)Nc1cccc(C(=O)/C=C/c2ccc3c(c2)c2ccccc2n3C)c1,60.9%
12.8%,4.14,< 4.00,4.20,,Cn1c2ccccc2c2cc(/C=C/C(=O)c3cccc(NC(=O)c4cccs4)c3)ccc21,82.1%
42.5%,4.82,4.37,4.85,4.93,Cn1c2ccccc2c2cc(/C=C/C(=O)c3cccc(NC(=O)c4ccccc4)c3)ccc21,86.7%
36.1%,4.82,5.25,4.76,,Cn1c2ccccc2c2cc(/C=C/C(=O)c3cccc(NC(=O)c4ccc(Cl)cc4)c3)ccc21,81.1%
10.2%,< 4.00,4.05,< 4.00,,Cn1c2ccccc2c2cc(/C=C/C(=O)c3cccc(NC(=O)c4cccc(Br)c4)c3)ccc21,78.9%
15.6%,4.11,< 4.00,4.10,,CC(=O)Nc1cccc(C(=O)/C=C/c2ccc3c(c2)c2ccccc2n3C)c1,80.6%
30%,4.13,5.37,4.10,,Cn1c2ccccc2c2cc(/C=C/C(=O)c3cccc(NC(=O)C4CC4)c3)ccc21,79.5%
10.7%,4.22,< 4.00,4.33,,Cn1c2ccccc2c2cc(/C=C/C(=O)c3cccc(NC(=O)c4ccco4)c3)ccc21,86.6%
24%,4.78,4.59,4.82,,Cn1c2ccccc2c2cc(/C=C/C(=O)c3cccc(NC(=O)c4ccc(F)cc4)c3)ccc21,88.7%
9.7%,< 4.00,4.52,< 4.00,,Cn1c2ccccc2c2cc(/C=C/C(=O)c3cccc(NC(=O)c4ccccc4Cl)c3)ccc21,72%
20.6%,4.38,5.35,4.45,,Cn1c2ccccc2c2cc(/C=C/C(=O)c3cccc(NC(=O)c4cccc(F)c4)c3)ccc21,83.9%
25.4%,4.82,5.28,4.82,,Cc1ccc(C(=O)Nc2cccc(C(=O)/C=C/c3ccc4c(c3)c3ccccc3n4C)c2)cc1,82.7%
40.5%,4.82,4.10,4.74,,Cn1c2ccccc2c2cc(/C=C/C(=O)c3cccc(NC(=O)c4ccccc4F)c3)ccc21,84.5%
11.6%,< 4.00,4.24,< 4.00,,Cn1c2ccccc2c2cc(/C=C/C(=O)c3cccc(NC(=O)c4ccc(C(C)(C)C)cc4)c3)ccc21,84%
20.1%,4.30,4.31,4.32,,Cn1c2ccccc2c2cc(/C=C/C(=O)c3cccc(N)c3)ccc21,76.4%
21.7%,4.53,4.68,4.45,,Cc1cccc(C(=O)Nc2cccc(C(=O)/C=C/c3ccc4c(c3)c3ccccc3n4C)c2)c1,83.6%
